In PubChem BioAssay AID1963868 (Molecular Pharmacology Branch, DTP, NCI, 2024):

Test system: KRAS PDC tumor spheroids (HUVEC+MSC), viability
Test: Anticancer human tumor 254851-301-R-J1-PDC patient-derived colon carcinoma cell line growth inhibition [KRAS2]
Details: for viability, T/C: stronger effect = lower value
From the text: Multicellular complex tumor spheroid response to RAS pathway inhibitors in combination with a targeted agents in patient-derived cell lines with oncogenic KRAS variants from multiple cancer types
A high-throughput screen of multi-cell type tumor spheroids was designed to identify active combinations of targeted small molecules and KRAS pathway inhibitors. Complex spheroids include a stromal component modeled by human endothelial cells (HUVEC) and fibroblasts modeled by human mesenchymal stem cells (MSCs). The concentration ranges selected for each drug and investigational agent were based upon clinically achievable concentrations if the clinical Cmax of the agent was known.
Compounds. The drugs and investigational agents: BI-3406 (NSC825286), BAY-293 (NSC824723), batoprotafib (TNO155; NSC825523), sotorasib (AMG 510; NSC818433), MRTX1257 (NSC819558), elimusertib (BAY 1895344; NSC800525), molibresib (GSK525762; NSC774829), temuterkib (LY3214996; NSC803410), venetoclax (NSC766270), alisertib (NSC759677), olaparib (NSC753686), talazoparib (NSC767125), erdafitinib (NSC781556), ipatasertib (NSC767898), cabozantinib (NSC761068), nintedanib (NSC756659), abemaciclib (NSC768073), docetaxel (NSC628503), trametinib (NSC758246), and sapanisertib (NSC764658) were obtained from the National Cancer Institute (NCI) Developmental Therapeutics Program Chemical Repository. The FDA-approved anticancer drug set is available from the Developmental Therapeutics Program. […] The stock solutions were prepared in dimethyl sulfoxide (DMSO, Sigma-Aldrich, St. Louis, MO, cat. D2650) at 800-fold the tested concentration and stored at -70 degrees C prior to their use. All drugs and investigational agents were tested over a range starting from a high concentration at or near the clinical Cmax and decreasing in half-log increments. If the clinical Cmax for an agent had not been determined, the highest concentration tested was 10 microM.
Cell Culture. All cells were maintained in an incubator at 37 degrees C and 5% CO2 with 95% humidity. The PDC lines were cultured according to standard operating procedures established by the NCI PDMR (https://pdmr.cancer.gov/sops/default.htm). Briefly, all PDCs were thawed and cultured in Matrigel-coated flasks prepared with a working solution of 1X Ham's F-12 nutrient mix, without supplementation (Invitrogen, Waltham, MA, cat. 11765054), 100 U/mL penicillin-streptomycin (Invitrogen, cat. 15140122), and 2.5% Matrigel (Corning Inc., Corning, NY, cat. 354248) for the first three passages. All PDCs were cultured in complete DMEM/F-12 media containing advanced DMEM/F-12 (Invitrogen, cat. 12634028), 4.9% defined fetal bovine serum, heat inactivated (HyClone Laboratories Inc., Logan, UT, cat. SH30070.03HI), 389 ng/mL hydrocortisone (Sigma-Aldrich, cat. H4001), 9.7 ng/mL human EGF recombinant protein (Invitrogen, cat. PHG0313), 23.4 microg/mL adenine (Sigma-Aldrich, cat. A2786), 97.3 U/mL penicillin-streptomycin (Invitrogen, cat. 15140122), 1.9 mM L-glutamine (Invitrogen, cat. 25030081), and 9.7 microM Y-27632 dihydrochloride (Tocris Bioscience, Bristol, United Kingdom, cat. 1254). The PDCs were cultured in complete DMEM/F12 media without 9.7 microM Y-27632 dihydrochloride for at least two passages prior to the screen. The established cell line HOP-62 was cultured in RPMI 1640 medium, HEPES (Invitrogen, cat. 22400105) with 10% defined fetal bovine serum (HyClone Laboratories Inc., cat. SH30070.03) and 2 mM L-glutamine (Invitrogen, cat. 25030081). The pooled donor HUVEC were cultured in endothelial cell growth medium 2 (PromoCell, Heidelberg, Germany, cat. C-22011) and the hMSC were cultured in mesenchymal stem cell growth medium 2 (PromoCell, cat. C-28009). For all experiments, HUVEC and hMSC were used at passages </=5, while the malignant cell lines were used at passages </=15. […]

[1] = curve of first compound, second compound 0.1 µM
[2] = curve of first compound, second compound 0.316 µM
[3] = curve of first compound, second compound 1 µM
[4] = curve of first compound, second compound 3.16 µM
[5] = curve of first compound, second compound 10 µM
[6] = second compound 0.1 µM, first compound 0.0316 µM
[7] = second compound 0.1 µM, first compound 0.1 µM
[8] = second compound 0.1 µM, first compound 0.316 µM
[9] = second compound 0.1 µM, first compound 1 µM
[10] = second compound 0.1 µM, first compound 3.16 µM
[11] = second compound 0.1 µM, first compound 10 µM
[12] = second compound 0.316 µM, first compound 0.0316 µM
[13] = second compound 0.316 µM, first compound 0.1 µM
[14] = second compound 0.316 µM, first compound 0.316 µM
[15] = second compound 0.316 µM, first compound 1 µM
[16] = second compound 0.316 µM, first compound 3.16 µM
[17] = second compound 0.316 µM, first compound 10 µM
[18] = second compound 1 µM, first compound 0.0316 µM
[19] = second compound 1 µM, first compound 0.1 µM
[20] = second compound 1 µM, first compound 0.316 µM
[21] = second compound 1 µM, first compound 1 µM
[22] = second compound 1 µM, first compound 3.16 µM
[23] = second compound 1 µM, first compound 10 µM
[24] = second compound 3.16 µM, first compound 0.0316 µM
[25] = second compound 3.16 µM, first compound 0.1 µM
[26] = second compound 3.16 µM, first compound 0.316 µM
[27] = second compound 3.16 µM, first compound 1 µM
[28] = second compound 3.16 µM, first compound 3.16 µM
[29] = second compound 3.16 µM, first compound 10 µM
[30] = second compound 10 µM, first compound 0.0316 µM
[31] = second compound 10 µM, first compound 0.1 µM
[32] = second compound 10 µM, first compound 0.316 µM
[33] = second compound 10 µM, first compound 1 µM
[34] = second compound 10 µM, first compound 3.16 µM
[35] = second compound 10 µM, first compound 10 µM
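Also: spheroids exposed to compounds for seven days before readout.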
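For viability, T/C in this document: 100% = DMSO vehicle control luminescence of the spheroids.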

## Cn1nccc1Nc1nccc(-c2cc3c(s2)C(C)(C)N(CCN2CCOCC2)C3=O)n1 + CC1OCC2(CCN(c3cnc(Sc4ccnc(N)c4Cl)c(N)n3)CC2)C1N
[1]
  IC50: 1.72 µM
[2]
  IC50: 1.81 µM
[3]
  IC50: 1.29 µM
[4]
  IC50: 0.469 µM
[5]
  IC50: 0.422 µM
[6]
  viability, T/C: 97.6%
[7]
  viability, T/C: 98.1%
[8]
  viability, T/C: 100%
[9]
  viability, T/C: 86.9%
[10]
  viability, T/C: 8.68%
[11]
  viability, T/C: 4.09%
[12]
  viability, T/C: 83.8%
[13]
  viability, T/C: 86.8%
[14]
  viability, T/C: 85.3%
[15]
  viability, T/C: 69.8%
[16]
  viability, T/C: 31.1%
[17]
  viability, T/C: 4.06%
[18]
  viability, T/C: 77.4%
[19]
  viability, T/C: 83.7%
[20]
  viability, T/C: 81.8%
[21]
  viability, T/C: 61.1%
[22]
  viability, T/C: 11.1%
[23]
  viability, T/C: 3.68%
[24]
  viability, T/C: 68%
[25]
  viability, T/C: 77.5%
[26]
  viability, T/C: 75.8%
[27]
  viability, T/C: 4.42%
[28]
  viability, T/C: 2.57%
[29]
  viability, T/C: 1.97%
[30]
  viability, T/C: 64%
[31]
  viability, T/C: 79.5%
[32]
  viability, T/C: 63%
[33]
  viability, T/C: 10.3%
[34]
  viability, T/C: 3.18%
[35]
  viability, T/C: 2.52%

## COC(=O)c1ccc2c(C(=Nc3ccc(N(C)C(=O)CN4CCN(C)CC4)cc3)c3ccccc3)c(O)[nH]c2c1 + CNCc1ccccc1-c1csc(C(C)Nc2nc(C)nc3cc(OC)c(OC)cc23)c1
[1]
  IC50: > 10 µM
[2]
  IC50: > 10 µM
[3]
  IC50: > 10 µM
[4]
  IC50: 0.378 µM
[5]
  IC50: < 0.0316 µM
[6]
  viability, T/C: 101%
[7]
  viability, T/C: 94.3%
[8]
  viability, T/C: 96.3%
[9]
  viability, T/C: 91%
[10]
  viability, T/C: 83.9%
[11]
  viability, T/C: 95.9%
[12]
  viability, T/C: 93.1%
[13]
  viability, T/C: 93.6%
[14]
  viability, T/C: 91.9%
[15]
  viability, T/C: 87%
[16]
  viability, T/C: 77.4%
[17]
  viability, T/C: 86.2%
[18]
  viability, T/C: 91.8%
[19]
  viability, T/C: 96.5%
[20]
  viability, T/C: 84.8%
[21]
  viability, T/C: 79.9%
[22]
  viability, T/C: 69.2%
[23]
  viability, T/C: 59%
[24]
  viability, T/C: 63.6%
[25]
  viability, T/C: 70.2%
[26]
  viability, T/C: 58.8%
[27]
  viability, T/C: 2.44%
[28]
  viability, T/C: 0.21%
[29]
  viability, T/C: 0.68%
[30]
  viability, T/C: 0.16%
[31]
  viability, T/C: 0.16%
[32]
  viability, T/C: 0.25%
[33]
  viability, T/C: 0.11%
[34]
  viability, T/C: 0.1%
[35]
  viability, T/C: 0.16%

## O=C(c1cc(Cc2n[nH]c(=O)c3ccccc23)ccc1F)N1CCN(C(=O)C2CC2)CC1 + CNCc1ccccc1-c1csc(C(C)Nc2nc(C)nc3cc(OC)c(OC)cc23)c1
[1]
  IC50: > 10 µM
[2]
  IC50: > 10 µM
[3]
  IC50: > 10 µM
[4]
  IC50: > 10 µM
[5]
  IC50: < 0.0316 µM
[6]
  viability, T/C: 101%
[7]
  viability, T/C: 109%
[8]
  viability, T/C: 104%
[9]
  viability, T/C: 108%
[10]
  viability, T/C: 113%
[11]
  viability, T/C: 105%
[12]
  viability, T/C: 107%
[13]
  viability, T/C: 108%
[14]
  viability, T/C: 107%
[15]
  viability, T/C: 109%
[16]
  viability, T/C: 104%
[17]
  viability, T/C: 105%
[18]
  viability, T/C: 116%
[19]
  viability, T/C: 109%
[20]
  viability, T/C: 103%
[21]
  viability, T/C: 110%
[22]
  viability, T/C: 105%
[23]
  viability, T/C: 103%
[24]
  viability, T/C: 79.6%
[25]
  viability, T/C: 97.1%
[26]
  viability, T/C: 82.4%
[27]
  viability, T/C: 59.3%
[28]
  viability, T/C: 82.3%
[29]
  viability, T/C: 71.6%
[30]
  viability, T/C: 0.19%
[31]
  viability, T/C: 0.29%
[32]
  viability, T/C: 0.18%
[33]
  viability, T/C: 0.17%
[34]
  viability, T/C: 0.17%
[35]
  viability, T/C: 0.22%

## CC(=O)OC12COC1CC(O)C1(C)C(=O)C(O)C3=C(C)C(OC(=O)C(O)C(NC(=O)OC(C)(C)C)c4ccccc4)CC(O)(C(OC(=O)c4ccccc4)C21)C3(C)C (configuration not stated)
Compound 0.01 µM
  viability, T/C: 98.5% [middle of 5 runs]
Compound 0.0316 µM
  viability, T/C: 95.8% [middle of 5 runs]
Compound 0.1 µM
  viability, T/C: 68.8% [middle of 5 runs]
Compound 0.316 µM
  viability, T/C: 42.4% [middle of 5 runs]
Compound 1 µM
  viability, T/C: 28.1% [middle of 5 runs]
Compound 3.16 µM
  viability, T/C: 25.8% [middle of 5 runs]
Curve of compound
  IC50: 217 nM [middle of 5 runs]

## CC1COCCN1c1cc(-c2ccnn2C)c2ccnc(-c3ccn[nH]3)c2n1 (configuration not stated) + CC1OCC2(CCN(c3cnc(Sc4ccnc(N)c4Cl)c(N)n3)CC2)C1N
[1]
  IC50: 0.303 µM
[2]
  IC50: 0.323 µM
[3]
  IC50: 0.315 µM
[4]
  IC50: 0.165 µM
[5]
  IC50: 0.152 µM
Second compound 0.1 µM, first compound 0.01 µM
  viability, T/C: 114%
[6]
  viability, T/C: 107%
[7]
  viability, T/C: 75.5%
[8]
  viability, T/C: 48.6%
[9]
  viability, T/C: 36.4%
[10]
  viability, T/C: 24.5%
Second compound 0.316 µM, first compound 0.01 µM
  viability, T/C: 90.5%
[12]
  viability, T/C: 101%
[13]
  viability, T/C: 83.5%
[14]
  viability, T/C: 49.8%
[15]
  viability, T/C: 33%
[16]
  viability, T/C: 24.4%
Second compound 1 µM, first compound 0.01 µM
  viability, T/C: 88.7%
[18]
  viability, T/C: 89.8%
[19]
  viability, T/C: 79%
[20]
  viability, T/C: 47.1%
[21]
  viability, T/C: 34.6%
[22]
  viability, T/C: 21.2%
Second compound 3.16 µM, first compound 0.01 µM
  viability, T/C: 69.2%
[24]
  viability, T/C: 74.8%
[25]
  viability, T/C: 57%
[26]
  viability, T/C: 39.2%
[27]
  viability, T/C: 23.1%
[28]
  viability, T/C: 21.9%
Second compound 10 µM, first compound 0.01 µM
  viability, T/C: 67.1%
[30]
  viability, T/C: 65.8%
[31]
  viability, T/C: 58.3%
[32]
  viability, T/C: 35.8%
[33]
  viability, T/C: 27.2%
[34]
  viability, T/C: 20%
